From US20110195911A1, “SYNTHETIC ANALOGS OF THE JUXTAMEMBRANE DOMAIN OF IGF1R AND USES THEREOF” (THE UNITED STATES OF AMERICA,AS REPRESENTED BY THE …, priority 2008, published 2011)
Where a SMILES comes first, the peptide text is derived from it. [ ]: non-standard residue; d: D form. The star is where a group is joined. Palmitoyl = CCCCCCCCCCCCCCCC(=O)*

System: MCF-7 breast cancer cells
Assay: MTT cell toxicity assay in MCF-7 breast cancer cells
Format: cell-based
Details: for GI50 / TGI: final 0.5% FBS, two days with compound; for TGI: concentration of total growth inhibition (cytostatic); for growth inhibition / potency in MCF-7 cells (in words): comparison with related peptides; for improvement of potency: N-terminal truncation, relative to peptide 12/3
Protocol: Cell Toxicity Assays: MCF-7 (breast cancer), T47D (breast cancer), Colo 205 (colon cancer), JM-1 (rat hepatoma), Sk Me1-2 (melanoma), PLC (human hepatoma), and HepG2 (human hepatoma) cells were obtained from American Type Cell Culture Collection. MCF-7 cells were grown in RPMI medium supplemented with 10% Fetal Bovine Serum. The rest of the cell lines were grown in DMEM medium supplemented with 10% Fetal Bovine Serum.
MTT 43-(4,5-Dimethylthiazol-2-yl)-2,5-diphenyltetrazolium) cell assay was performed using MCF-7 breast cancer cells. For the assay, cells were seeded into 96 well plates in medium containing 1% Fetal Bovine Serum and 100 μL of a cell suspension containing 5000 cells per well. Wells containing medium-only, and wells containing untreated cells, served as controls.
Seeded cells were allowed to attach and grow in the wells for 24 hours. A 5 mM stock solution of each peptide was made by dissolving approximately 1 mg of peptide in appropriate amount of DMSO. 2 mL dilutions were used to make 0.2 μM, 1.0 μM, 5.0 μM, and 10.0 μM concentration solutions of the compounds in serum-free medium. 100 μl, of the resulting 2× solutions were added to the corresponding wells to provide a final FBS concentration of 0.5% and 0.1 μM, 0.5 μM, 2.5 μM, and 5.0 μM dilutions of inhibitors. The cells were incubated with test compounds for two days. The control wells were given 100 μL of medium to ensure maximum similarity to the test wells so that all of the wells had 200 μL of medium during the growth period. An individual plate was made for Time Zero, to which the dye was added at the time of addition of compounds.
An alternative potency assay was used to test compounds in MCF-7 (breast cancer), T47D (breast cancer), Colo 205 (colon cancer), JM-1 (rat hepatoma), Sk MeI-2 (melanoma), PLC (human hepatoma), and HepG2 (human hepatoma) cells. Cells were suspended at a concentration of approximately 5000 cells per 100 μL of suspension in a 5% FBS RPMI medium. The cells were seeded into 96-count wells and incubated over night. After one day's incubation, the 5% FBS medium was aspirated and replaced with 100 μL of no serum RPMI medium containing 1 mg Bovine Serum Albumin (BSA) per 1 mL RPMI. Various concentrations of the test compounds were prepared by dilution in no-serum medium containing 1 mg BSA/mL. 75 μL of the test compound solutions were added to the wells, and the cells were allowed to incubate for 15-20 minutes, after which time 25 μL of human recombinant IGF-1 (Peprotech) solution was added to the wells to attain final concentrations of 10 ng IGF-1/mL medium. The control wells were given 175 μL of no-serum medium in addition to 25 μL of IGF-1 solution. An individual plate was made for time zero, in which the medium was also aspirated and replaced with 175 μL of no-serum medium and 25 μL of IGF-1. 15 μL of MTT dye was added and let incubate for 4 hours, after which time a stop stop solubilization solution was added. The stop solution lysed the cells and released the dye reduced by the remaining living cells. Absorbance of the wells at 544 nm was determined by a FLUOstar/POLARstar Galaxy (BMG Lab Technologies GmbH) microplate reader. The activity was calculated from the data using the formula: 100×[(T−T0)/(C−T0)] for T>T0 and 100×[(T−T0)/T0] for T<T0, wherein T0 corresponds to cell density at the time of drug addition, “T” is the optical density of the test well after a 48-h period of exposure to test drug, and “C” is the control optical density. The GI50 measures the growth inhibitory power of the test agent, and is defined as the concentration of test drug where 100×(T−T0)/(C−T0)=50. The TGI is the concentration of test drug where 100×(T−T0)/(C−T0)=0. Thus, the TGI signifies a cytostatic effect.

CCCCCCCCCCCCCCCC(=O)N[C@@H](CCCNC(=N)N)C(=O)N[C@@H](CCCCN)C(=O)N[C@@H](CCCNC(=N)N)C(=O)N[C@@H](CC(N)=O)C(=O)N[C@@H](CC(N)=O)C(=O)N[C@@H](CO)C(=O)N[C@@H](CCCNC(=N)N)C(=O)N[C@@H](CC(C)C)C(=O)NCC(=O)N[C@@H](CC(N)=O)C(=O)NCC(=O)N[C@H](C(=O)N[C@@H](CC(C)C)C(=O)N[C@@H](Cc1ccc(O)cc1)C(=O)N[C@@H](C)C(=O)N[C@@H](CO)C(=O)N[C@H](C(=O)N[C@@H](CC(N)=O)C(N)=O)C(C)C)C(C)C [Peptide 12, Pal-RKRNNSRLGNGVLYASVN-NH2] (Palmitoyl-RKRNNSRLGNGVLYASVN-NH2)
GI50 (MCF-7 cells, MTT): 1200 ± 100 nM | TGI (MCF-7 cells, MTT): 2700 ± 300 nM | growth inhibition / potency in MCF-7 cells (in words) (MCF-7 cells, MTT): decreased activity slightly

CCCCCCCCCCCCCCCC(=O)N[C@@H](CCCCN)C(=O)N[C@@H](CCCNC(=N)N)C(=O)N[C@@H](CC(N)=O)C(=O)N[C@@H](CC(N)=O)C(=O)N[C@@H](CO)C(=O)N[C@@H](CCCNC(=N)N)C(=O)N[C@@H](CC(C)C)C(=O)NCC(=O)N[C@@H](CC(N)=O)C(=O)NCC(=O)N[C@H](C(=O)N[C@@H](CC(C)C)C(=O)N[C@@H](Cc1ccc(O)cc1)C(=O)N[C@@H](C)C(=O)N[C@@H](CO)C(=O)N[C@H](C(=O)N[C@@H](CC(N)=O)C(N)=O)C(C)C)C(C)C [Peptide 13, Pal-KRNNSRLGNGVLYASVN-NH2] (Palmitoyl-KRNNSRLGNGVLYASVN-NH2)
improvement of potency (MCF-7): more than ten-fold | increase in toxicity (MCF-7, relative to peptide 3): 12.5 fold | GI50 (MCF-7 cells, MTT): 80 ± 7 nM | TGI (MCF-7 cells, MTT): 500 ± 80 nM

CCCCCCCCCCCCCCCC(=O)N[C@@H](CCCNC(=N)N)C(=O)N[C@@H](CC(N)=O)C(=O)N[C@@H](CC(N)=O)C(=O)N[C@@H](CO)C(=O)N[C@@H](CCCNC(=N)N)C(=O)N[C@@H](CC(C)C)C(=O)NCC(=O)N[C@@H](CC(N)=O)C(=O)NCC(=O)N[C@H](C(=O)N[C@@H](CC(C)C)C(=O)N[C@@H](Cc1ccc(O)cc1)C(=O)N[C@@H](C)C(=O)N[C@@H](CO)C(=O)N[C@H](C(=O)N[C@@H](CC(N)=O)C(N)=O)C(C)C)C(C)C [Peptide 14, Pal-RNNSRLGNGVLYASVN-NH2] (Palmitoyl-RNNSRLGNGVLYASVN-NH2)
improvement of potency (MCF-7): more than ten-fold | GI50 (MCF-7 cells, MTT): 100 ± 4 nM | TGI (MCF-7 cells, MTT): 400 ± 20 nM

CCCCCCCCCCCCCCCC(=O)N[C@@H](CC(N)=O)C(=O)N[C@@H](CC(N)=O)C(=O)N[C@@H](CO)C(=O)N[C@@H](CCCNC(=N)N)C(=O)N[C@@H](CC(C)C)C(=O)NCC(=O)N[C@@H](CC(N)=O)C(=O)NCC(=O)N[C@H](C(=O)N[C@@H](CC(C)C)C(=O)N[C@@H](Cc1ccc(O)cc1)C(N)=O)C(C)C [Peptide 15, Pal-NNSRLGNGVLY-NH2] (Palmitoyl-NNSRLGNGVLY-NH2)
GI50 (MCF-7 cells, MTT): 100 ± 10 nM | TGI (MCF-7 cells, MTT): 1500 ± 50 nM | growth inhibition / potency in MCF-7 cells (in words) (MCF-7 cells, MTT): gradual reduction in potency

CCCCCCCCCCCCCCCC(=O)N[C@@H](CCCNC(=N)N)C(=O)N[C@@H](CC(N)=O)C(=O)N[C@@H](CC(N)=O)C(=O)N[C@@H](CO)C(=O)N[C@@H](CCCNC(=N)N)C(=O)N[C@@H](CC(C)C)C(=O)NCC(=O)N[C@@H](CC(N)=O)C(=O)NCC(=O)N[C@H](C(=O)N[C@@H](CC(C)C)C(=O)N[C@@H](Cc1ccc(O)cc1)C(N)=O)C(C)C [Peptide 16, Pal-RNNSRLGNGVLY-NH2] (Palmitoyl-RNNSRLGNGVLY-NH2)
GI50 (MCF-7 cells, MTT): 70 ± 5 nM | TGI (MCF-7 cells, MTT): 500 ± 20 nM | growth inhibition / potency in MCF-7 cells (in words) (MCF-7 cells, MTT): most potent derivative

CCCCCCCCCCCCCCCC(=O)N[C@@H](CC(N)=O)C(=O)N[C@@H](CO)C(=O)N[C@@H](CCCNC(=N)N)C(=O)N[C@@H](CC(C)C)C(=O)NCC(=O)N[C@@H](CC(N)=O)C(=O)NCC(=O)N[C@H](C(=O)N[C@@H](CC(C)C)C(=O)N[C@@H](Cc1ccc(O)cc1)C(N)=O)C(C)C [Peptide 17, Pal-NSRLGNGVLY-NH2] (Palmitoyl-NSRLGNGVLY-NH2)
GI50 (MCF-7 cells, MTT): 200 ± 10 nM | TGI (MCF-7 cells, MTT): 1500 ± 100 nM | growth inhibition / potency in MCF-7 cells (in words) (MCF-7 cells, MTT): gradual reduction in potency

CCCCCCCCCCCCCCCC(=O)N[C@@H](CO)C(=O)N[C@@H](CCCNC(=N)N)C(=O)N[C@@H](CC(C)C)C(=O)NCC(=O)N[C@@H](CC(N)=O)C(=O)NCC(=O)N[C@H](C(=O)N[C@@H](CC(C)C)C(=O)N[C@@H](Cc1ccc(O)cc1)C(N)=O)C(C)C [Peptide 19, Pal-SRLGNGVLY-NH2] (Palmitoyl-SRLGNGVLY-NH2)
GI50 (MCF-7 cells, MTT): 150 ± 50 nM | TGI (MCF-7 cells, MTT): 2000 ± 100 nM | growth inhibition / potency in MCF-7 cells (in words) (MCF-7 cells, MTT): gradual reduction in potency

CCCCCCCCCCCCCCCC(=O)N[C@@H](CCCNC(=N)N)C(=O)N[C@@H](CC(C)C)C(=O)NCC(=O)N[C@@H](CC(N)=O)C(=O)NCC(=O)N[C@H](C(=O)N[C@@H](CC(C)C)C(=O)N[C@@H](Cc1ccc(O)cc1)C(N)=O)C(C)C [Peptide 20, Pal-RLGNGVLY-NH2] (Palmitoyl-RLGNGVLY-NH2)
GI50 (MCF-7 cells, MTT): 200 ± 6 nM | TGI (MCF-7 cells, MTT): >5000 nM | growth inhibition / potency in MCF-7 cells (in words) (MCF-7 cells, MTT): gradual reduction in potency

CCCCCCCCCCCCCCCC(=O)N[C@@H](C(=O)N[C@H](CO)C(=O)N[C@H](C)C(=O)N[C@H](Cc1ccc(O)cc1)C(=O)N[C@H](CC(C)C)C(=O)N[C@@H](C(=O)NCC(=O)N[C@H](CC(N)=O)C(=O)NCC(=O)N[C@H](CC(C)C)C(=O)N[C@H](CCCNC(=N)N)C(=O)N[C@H](CO)C(=O)N[C@H](CC(N)=O)C(=O)N[C@H](CC(N)=O)C(=O)N[C@H](CCCNC(=N)N)C(N)=O)C(C)C)C(C)C [Peptide 21, Pal-VSAYLVGNGLRSNNR-NH2] (Palmitoyl-[dV][dS][dA][dY][dL][dV]G[dN]G[dL][dR][dS][dN][dN][dR]-NH2)
TGI (MCF-7 cells, MTT): 100 ± 5 nM | growth inhibition / potency in MCF-7 cells (in words) (MCF-7 cells, MTT): did not improve or diminish the inhibitory activity

CCCCCCCCCCCCCCCC(=O)N[C@H](Cc1ccc(O)cc1)C(=O)N[C@H](CC(C)C)C(=O)N[C@@H](C(=O)NCC(=O)N[C@H](CC(N)=O)C(=O)NCC(=O)N[C@H](CC(C)C)C(=O)N[C@H](CCCNC(=N)N)C(=O)N[C@H](CO)C(=O)N[C@H](CC(N)=O)C(=O)N[C@H](CC(N)=O)C(=O)N[C@H](CCCNC(=N)N)C(N)=O)C(C)C [Peptide 22, Pal-YLVGNGLRSNNR-NH2] (Palmitoyl-[dY][dL][dV]G[dN]G[dL][dR][dS][dN][dN][dR]-NH2)
cell killing activity (in words) (MCF-7 cells, MTT): enhanced cell killing activity | TGI (MCF-7 cells, MTT): 500 ± 25 nM | growth inhibition / potency in MCF-7 cells (in words) (MCF-7 cells, MTT): equipotent to peptide 18

CCCCCCCCCCCCCCCC(=O)N[C@@H](Cc1c[nH]cn1)C(=O)N[C@@H](CCCNC(=N)N)C(=O)N[C@@H](CCCCN)C(=O)N[C@@H](CCCNC(=N)N)C(=O)N[C@@H](CC(N)=O)C(=O)N[C@@H](CC(N)=O)C(=O)N[C@@H](CO)C(=O)N[C@@H](CCCNC(=N)N)C(=O)N[C@@H](CC(C)C)C(=O)NCC(=O)N[C@@H](CC(N)=O)C(=O)NCC(=O)N[C@H](C(=O)N[C@@H](CC(C)C)C(=O)N[C@@H](Cc1ccc(O)cc1)C(=O)N[C@@H](C)C(=O)N[C@@H](CO)C(=O)N[C@H](C(=O)N[C@@H](CC(N)=O)C(=O)N1CCC[C@H]1C(N)=O)C(C)C)C(C)C [Peptide 23] (Palmitoyl-HRKRNNSRLGNGVLYASVNP-NH2)
GI50 (MCF-7 cells, MTT): 100 ± 50 nM | TGI (MCF-7 cells, MTT): >5000 nM | growth inhibition / potency in MCF-7 cells (in words) (MCF-7 cells, MTT): increased the potency
